Source: patent US12714106B2 (Bayer Aktiengesellschaft, priority 2020, dated 2026)

How the values were obtained:
Format in all cases: in vivo
[1] = tested on: POLCO (Polygonum convolvulus); assay: Post-emergence greenhouse herbicide test, visual rating; settings: 12.5 g/ha
Experimental: (§1) Seeds of grass and broadleaf weeds were sown in pots (diameter: 7 cm) filled with a sandy loam soil. Following germination the plants were grown under optimal conditions up to a growth stage of BBCH 11 to 14 depending on species.
(§2) The applications were performed by post emergence treatments on the planted pots using a spray volume of 300 L water per hectare. The herbicides were applied alone and in combination as described.
(§3) The trial was conducted in the greenhouse ensuring optimal growing conditions.
(§4) The herbicidal effects were assessed 21 days following application by visual ratings comparing treated and untreated plants (0%=no effect to 100%=complete die-off).
(§5) The compounds of the formula (Ia), (Ib) and (I) were formulated as WP (wettable powder) formulation.
(§6) • BBCH=the BBCH code provides information about the morphological development stage of a plant. Officially, the abbreviation denotes the Biologische Bundesanstalt, Bundessortenamt and Chemische Industrie [Federal Biological Institute for Agriculture and Forestry, Federal Office for Crop Plant Varieties and Chemical Industry]. The range of BBCH 00-10 denotes the germination stages of the seeds until surface penetration. The range of BBCH 11-25 denotes the leaf development stages until stocking (corresponding to the number of tillers or side-shoots). In the Trials, the Following Biotypes of Broad-Leaved Weeds and Weed Grasses were Used: • ALOMY—sensitive (Alopecurus myosuroides) sensitive to customary herbicidally active compounds. • ALOMY_R (resistant) (Alopecurus myosuroides) resistant to herbicidally active compounds of the HRAC groups A and B; population mixture of field origin having increased metabolic resistance (IMR) and some target site resistance (TSR). • LOLRI—sensitive (Lolium rigidum) sensitive to customary herbicidally active compounds. • LOLRI_R (resistant) (Lolium rigidum) resistant to herbicidally active compounds of the HRAC groups A and B; population mixture of field origin having increased metabolic resistance (IMR) and some target site resistance (TSR). • AMAPA_R (resistant) (Amaranthus palmeri) resistant to herbicidally active compounds of the HRAC groups A and B; population mixture of field origin having increased metabolic resistance (IMR) and some target site resistance (TSR). • CHRVI (Chloris virgate) feather finger grass • KCHSC (Kochia scoparia) Mexican burning bush • MATIN (Matricaria inodora) false chamomile • POLCO (Polygonum convolvulus) black knotweed • ABUTH (Abutilon theophrasti) china jute • AMAPA (Amaranthus palmeri) palmer amaranth • BIDPI (Bidens pilosa) common blackjack • CHEAL (Chenopodium album) common lambsquarters • EPHHL (Euphorbia heterophylla) wild spurge • XANST (Xanthium strumarium) large cocklebur • EMEAU (Emex australis)—Cathead • GALAP (Gallium aparine)—Cleaver
(§7) The synergistic herbicidal activity was calculated using Colby's formula (cf. S. R. Colby; Weeds 15 (1967), 20-22): […]

[2] = tested on: EPHHL (Euphorbia heterophylla); assay: as above; settings: for EPHHL Expected: Colby formula; for EPHHL synerg.: observed minus expected; for EPHHL Observed: post-emergence, 21 days after application
Experimental: as §1, §2, §3, §4, §5, §6, §7

[3] = tested on: LOLRI - sensitive (Lolium rigidum); assay: as above; settings: for LOLRI Expected: Colby formula; for LOLRI Synergism: observed minus expected; for LOLRI Observed: post-emergence, 21 days after application
Experimental: as §1, §2, §3, §4, §5, §6, §7

[4] = tested on: ABUTH (Abutilon theophrasti); assay: as above; settings: for ABUTH Expected: Colby formula; for ABUTH synerg.: observed minus expected; for ABUTH Observed: post-emergence, 21 days after application
Experimental: as §1, §2, §3, §4, §5, §6, §7

[5] = tested on: BID PI (Bidens pilosa); assay: as above; settings: 25 g/ha (Ia) + 25 g/ha (Ib)
Experimental: as §1, §2, §3, §4, §5, §6, §7

[6] = tested on: CHRVI (Chloris virgate); assay: as above; settings: 12.5 g/ha
Experimental: as §1, §2, §3, §4, §5, §6, §7

[7] = tested on: GALAP (Gallium aparine); assay: as above; settings: 50 g/ha
Experimental: as §1, §2, §3, §4, §5, §6, §7

[8] = tested on: KCHSC (Kochia scoparia); assay: as above; settings: 12.5 g/ha
Experimental: as §1, §2, §3, §4, §5, §6, §7

[9] = tested on: XANST (Xanthium strumarium); assay: as above; settings: for XANST Expected: Colby formula; for XANST synerg.: observed minus expected; for XANST Observed: post-emergence, 21 days after application
Experimental: as §1, §2, §3, §4, §5, §6, §7

[10] = tested on: AMAPA-R (resistant) (Amaranthus palmeri); assay: as above; settings: 25 g/ha (Ia) + 25 g/ha (Ib)
Experimental: as §1, §2, §3, §4, §5, §6, §7

[11] = tested on: MATIN (Matricaria inodora); assay: as above; settings: for MATIN Expected: Colby formula; for MATIN Synergism: observed minus expected; for MATIN Observed: post-emergence, 21 days after application
Experimental: as §1, §2, §3, §4, §5, §6, §7

[12] = tested on: LOLRI_R (resistant) (Lolium rigidum); assay: as above; settings: for LOLRI_R Expected: Colby formula; for LOLRI_R Synergism: observed minus expected; for LOLRI_R Observed: post-emergence, 21 days after application
Experimental: as §1, §2, §3, §4, §5, §6, §7

[13] = tested on: CHEAL (Chenopodium album); assay: as above; settings: 25 g/ha (Ia) + 25 g/ha (Ib)
Experimental: as §1, §2, §3, §4, §5, §6, §7

[14] = tested on: EMEAU (Emex australis); assay: as above; settings: 12.5 g/ha (row as printed)
Experimental: as §1, §2, §3, §4, §5, §6, §7

[15] = tested on: grass and broadleaf weeds; assay: Comparative testing of crystalline (I), (Ia), (Ib), summary of tables 3 to 6; settings: see tables 3 to 6
Experimental: as §1, §2, §3, §4, §5, §7

[16] = post-emergence, 21 days after application

C=C[C@]1(C(=O)N[C@H]2CO[C@@H](C(=O)OC)C2)CC(c2cc(F)cc(F)c2)=NO1 (relative stereo) [(I), methyl(2R*,4R*)-4-[[(5S)-3-(3,5-difluorophenyl)-5-vinyl-4H-isoxazole-5-carbonyl]amino]tetrahydrofuran-2-carboxylate]
POLCO Expected ([1]; Colby formula): 91%
POLCO Synergism ([1]; observed minus expected): 4%
POLCO Observed [1, 16]: 95%
EPHHL Expected ([2]; 25 g/ha (Ia) + 25 g/ha (Ib)): 55%
EPHHL synerg. ([2]; 25 g/ha (Ia) + 25 g/ha (Ib)): 11%
EPHHL Observed ([2]; 25 g/ha (Ia) + 25 g/ha (Ib)): 65%
EPHHL Expected ([2]; 50 g/ha (Ia) + 50 g/ha (Ib)): 58%
EPHHL synerg. ([2]; 50 g/ha (Ia) + 50 g/ha (Ib)): 12%
EPHHL Observed ([2]; 50 g/ha (Ia) + 50 g/ha (Ib)): 70%
LOLRI Expected ([3]; 6.25 g/ha): 20%
LOLRI Synergism ([3]; 6.25 g/ha): 55%
LOLRI Observed ([3]; 6.25 g/ha): 75%
LOLRI Expected ([3]; 12.5 g/ha): 90%
LOLRI Synergism ([3]; 12.5 g/ha): 5%
LOLRI Observed ([3]; 12.5 g/ha): 95%
ABUTH Expected ([4]; 25 g/ha (Ia) + 25 g/ha (Ib)): 51%
ABUTH synerg. ([4]; 25 g/ha (Ia) + 25 g/ha (Ib)): 25%
ABUTH Observed ([4]; 25 g/ha (Ia) + 25 g/ha (Ib)): 75%
ABUTH Expected ([4]; 50 g/ha (Ia) + 50 g/ha (Ib)): 68%
ABUTH synerg. ([4]; 50 g/ha (Ia) + 50 g/ha (Ib)): 7%
ABUTH Observed ([4]; 50 g/ha (Ia) + 50 g/ha (Ib)): 75%
BID PI Expected ([5]; Colby formula): 37%
BID PI synerg. ([5]; observed minus expected): 28%
BID PI Observed [5, 16]: 65%
CHRVI Expected ([6]; Colby formula): 48%
CHRVI Synergism ([6]; observed minus expected): 47%
CHRVI Observed [6, 16]: 95%
GALAP Expected ([7]; Colby formula): 84%
GALAP Synergism ([7]; observed minus expected): 6%
GALAP Observed [7, 16]: 90%
KCHSC Expected ([8]; Colby formula): 82%
KCHSC Synergism ([8]; observed minus expected): 13%
KCHSC Observed [8, 16]: 95%
XANST Expected ([9]; 25 g/ha (Ia) + 25 g/ha (Ib)): 0%
XANST synerg. ([9]; 25 g/ha (Ia) + 25 g/ha (Ib)): 35%
XANST Observed ([9]; 25 g/ha (Ia) + 25 g/ha (Ib)): 35%
XANST Expected ([9]; 50 g/ha (Ia) + 50 g/ha (Ib)): 28%
XANST synerg. ([9]; 50 g/ha (Ia) + 50 g/ha (Ib)): 7%
XANST Observed ([9]; 50 g/ha (Ia) + 50 g/ha (Ib)): 35%
XANST Expected ([9]; 100 g/ha (Ia) + 100 g/ha (Ib)): 36%
XANST synerg. ([9]; 100 g/ha (Ia) + 100 g/ha (Ib)): 29%
XANST Observed ([9]; 100 g/ha (Ia) + 100 g/ha (Ib)): 65%
AMAPA-R Expected ([10]; Colby formula): 51%
AMAPA-R synerg. ([10]; observed minus expected): 14%
AMAPA-R Observed [10, 16]: 65%
MATIN Expected ([11]; 12.5 g/ha): 0%
MATIN Synergism ([11]; 12.5 g/ha): 15%
MATIN Observed ([11]; 12.5 g/ha): 15%
MATIN Expected ([11]; 25 g/ha): 0%
MATIN Synergism ([11]; 25 g/ha): 15%
MATIN Observed ([11]; 25 g/ha): 15%
MATIN Expected ([11]; 50 g/ha): 0%
MATIN Synergism ([11]; 50 g/ha): 20%
MATIN Observed ([11]; 50 g/ha): 20%
LOLRI_R Expected ([12]; 6.25 g/ha): 15%
LOLRI_R Synergism ([12]; 6.25 g/ha): 15%
LOLRI_R Observed ([12]; 6.25 g/ha): 30%
LOLRI_R Expected ([12]; 12.5 g/ha): 20%
LOLRI_R Synergism ([12]; 12.5 g/ha): 20%
LOLRI_R Observed ([12]; 12.5 g/ha): 40%
LOLRI_R Expected ([12]; 25 g/ha): 30%
LOLRI_R Synergism ([12]; 25 g/ha): 10%
LOLRI_R Observed ([12]; 25 g/ha): 40%
CHEAL Expected ([13]; Colby formula): 76%
CHEAL synerg. ([13]; observed minus expected): 19%
CHEAL Observed [13, 16]: 95%
EMEAU Expected ([14]; Colby formula): 89%
EMEAU Synergism ([14]; observed minus expected): 8%
EMEAU Observed [14, 16]: 97%
herbicidal activity compared with the other crystalline forms ([15]; (I) vs (Ia), (Ia) vs (Ib)): superior in herbicidal activity
synergistic effect of the physical mixture of (Ia) and (Ib) [15]: synergistic effect
